Experimental findings from ChEMBL document CHEMBL1909046, “DrugMatrix in vitro pharmacology data” are described below.

For data set [1], the target named is Beta-1 adrenergic receptor (Homo sapiens, UniProt P08588). Description: DRUGMATRIX: Adrenergic beta1 radioligand binding (ligand: [125I] Cyanopindolol). It is filed as cell membranes, CHO-K1, Membrane. To be noted: cho-k1; Not Active = under 50% inhibition at 10 µM.
The nature of data set [2]: DRUGMATRIX: Tumor Necrosis Factor (TNF), Non-Selective radioligand binding (ligand: [125I] TNF-alpha). It counts as cell membranes, Membrane. To be noted: u-937; Not Active = under 50% inhibition at 10 µM.
The target of the next data set is T1, D(4) dopamine receptor (Homo sapiens, UniProt P21917).
T1 sequence (P21917 whole entry): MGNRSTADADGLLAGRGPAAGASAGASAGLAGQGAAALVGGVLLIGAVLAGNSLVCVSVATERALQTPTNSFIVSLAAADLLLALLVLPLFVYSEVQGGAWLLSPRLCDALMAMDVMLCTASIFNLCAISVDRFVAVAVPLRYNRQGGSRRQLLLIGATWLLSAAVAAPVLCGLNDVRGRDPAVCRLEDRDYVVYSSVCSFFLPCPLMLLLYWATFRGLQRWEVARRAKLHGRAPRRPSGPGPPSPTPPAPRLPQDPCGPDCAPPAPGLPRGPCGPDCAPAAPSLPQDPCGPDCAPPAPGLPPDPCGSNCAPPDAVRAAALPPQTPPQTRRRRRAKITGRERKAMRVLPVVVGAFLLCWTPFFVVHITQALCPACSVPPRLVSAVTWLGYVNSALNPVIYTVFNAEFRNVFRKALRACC
Kind of data set: DRUGMATRIX: Dopamine D4.2 radioligand binding (ligand: [3H] Spiperone). It is filed as cell membranes, CHO-K1, Membrane. To be noted: cho-k1; Not Active = under 50% inhibition at 10 µM.

Data set [3] deals with Tyrosine-protein kinase Fyn (Homo sapiens, UniProt P06241). Description: biochemical. It counts as cell-based, Insect cells.
Tyrosine-protein kinase Fyn, sequence (P06241 whole entry): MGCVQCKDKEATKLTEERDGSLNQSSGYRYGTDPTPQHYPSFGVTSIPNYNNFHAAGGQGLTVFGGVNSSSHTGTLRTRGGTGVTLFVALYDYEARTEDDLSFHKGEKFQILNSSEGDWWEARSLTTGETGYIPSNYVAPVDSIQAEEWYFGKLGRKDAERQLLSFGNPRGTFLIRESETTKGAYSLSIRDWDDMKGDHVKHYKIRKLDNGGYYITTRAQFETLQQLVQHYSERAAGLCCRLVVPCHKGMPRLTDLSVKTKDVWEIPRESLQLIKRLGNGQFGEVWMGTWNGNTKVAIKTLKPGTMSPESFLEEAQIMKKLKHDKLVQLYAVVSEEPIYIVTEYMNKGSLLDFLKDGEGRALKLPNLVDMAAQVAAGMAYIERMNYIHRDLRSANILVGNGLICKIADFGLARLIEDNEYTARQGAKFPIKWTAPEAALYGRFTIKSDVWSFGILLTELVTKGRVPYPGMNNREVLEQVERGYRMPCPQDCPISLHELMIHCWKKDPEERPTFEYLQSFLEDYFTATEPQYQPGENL
Another data set concerns the target T2, Androgen receptor (Rattus norvegicus, UniProt P15207). Also: in other assays of this panel Not Active means under 50% inhibition at 10 µM.
T2 sequence (P15207 whole entry): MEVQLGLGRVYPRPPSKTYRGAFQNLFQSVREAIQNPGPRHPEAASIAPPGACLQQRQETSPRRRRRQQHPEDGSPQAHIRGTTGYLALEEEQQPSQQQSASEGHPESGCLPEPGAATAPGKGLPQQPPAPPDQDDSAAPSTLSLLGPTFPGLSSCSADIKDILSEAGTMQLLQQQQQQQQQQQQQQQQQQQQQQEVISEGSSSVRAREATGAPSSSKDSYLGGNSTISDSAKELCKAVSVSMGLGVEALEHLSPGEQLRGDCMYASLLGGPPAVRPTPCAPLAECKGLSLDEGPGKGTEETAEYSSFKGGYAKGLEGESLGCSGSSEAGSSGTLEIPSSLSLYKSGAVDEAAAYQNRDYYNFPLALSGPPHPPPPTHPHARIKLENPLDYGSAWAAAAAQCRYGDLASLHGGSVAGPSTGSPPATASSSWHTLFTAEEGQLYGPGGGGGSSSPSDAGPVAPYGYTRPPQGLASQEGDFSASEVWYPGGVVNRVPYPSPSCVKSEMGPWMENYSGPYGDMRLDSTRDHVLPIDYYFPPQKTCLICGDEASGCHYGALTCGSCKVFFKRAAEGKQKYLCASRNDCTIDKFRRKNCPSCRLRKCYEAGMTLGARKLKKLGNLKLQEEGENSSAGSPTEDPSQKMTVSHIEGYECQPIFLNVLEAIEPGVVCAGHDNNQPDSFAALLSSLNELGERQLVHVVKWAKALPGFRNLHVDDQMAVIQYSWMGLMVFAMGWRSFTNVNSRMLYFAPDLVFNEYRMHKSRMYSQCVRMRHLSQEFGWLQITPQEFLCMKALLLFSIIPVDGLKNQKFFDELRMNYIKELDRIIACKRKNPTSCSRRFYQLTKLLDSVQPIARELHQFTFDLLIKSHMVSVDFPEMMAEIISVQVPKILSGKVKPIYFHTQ

The target in another data set is Cytochrome P450 2D6 (Homo sapiens, UniProt P10635). To be noted: bti-tn-5b1-4. Also: in other assays of this panel Not Active means under 50% inhibition at 10 µM.
Cytochrome P450 2D6, sequence (P10635 whole entry): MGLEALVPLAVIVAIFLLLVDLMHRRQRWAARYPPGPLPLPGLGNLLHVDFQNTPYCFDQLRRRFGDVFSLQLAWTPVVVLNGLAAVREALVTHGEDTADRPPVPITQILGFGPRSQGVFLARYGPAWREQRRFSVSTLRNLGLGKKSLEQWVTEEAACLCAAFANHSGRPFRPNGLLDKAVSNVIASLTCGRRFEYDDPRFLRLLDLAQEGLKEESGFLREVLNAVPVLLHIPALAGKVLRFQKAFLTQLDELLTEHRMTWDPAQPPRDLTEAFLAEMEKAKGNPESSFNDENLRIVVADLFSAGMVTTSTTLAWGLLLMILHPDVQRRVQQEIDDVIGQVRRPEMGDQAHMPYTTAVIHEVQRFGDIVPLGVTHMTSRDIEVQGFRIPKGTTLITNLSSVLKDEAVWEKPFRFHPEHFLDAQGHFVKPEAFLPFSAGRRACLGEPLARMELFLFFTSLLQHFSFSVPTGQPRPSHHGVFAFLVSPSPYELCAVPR

Structures are written as SMILES.

Beta-1 adrenergic receptor, sequence (P08588 whole entry): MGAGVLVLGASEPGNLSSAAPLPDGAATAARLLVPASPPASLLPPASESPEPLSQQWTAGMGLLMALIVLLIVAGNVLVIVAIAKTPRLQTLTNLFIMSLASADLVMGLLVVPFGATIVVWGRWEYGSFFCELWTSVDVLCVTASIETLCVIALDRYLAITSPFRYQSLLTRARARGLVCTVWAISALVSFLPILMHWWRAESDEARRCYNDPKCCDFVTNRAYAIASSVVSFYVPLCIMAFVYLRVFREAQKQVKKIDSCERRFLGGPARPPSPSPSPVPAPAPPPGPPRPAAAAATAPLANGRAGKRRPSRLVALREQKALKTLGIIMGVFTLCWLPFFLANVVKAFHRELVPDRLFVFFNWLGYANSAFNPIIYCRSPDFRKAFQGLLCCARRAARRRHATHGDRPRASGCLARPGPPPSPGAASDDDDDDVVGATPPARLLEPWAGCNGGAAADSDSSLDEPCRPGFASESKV

Consider `Nn1nnc2ccccc21`, for which the IC50 entry (in data set [1]; in data set [2]; on D(4) dopamine receptor; in data set [3] (insect cells); against Androgen receptor; against Cytochrome P450 2D6) was “Not Active” throughout. Moreover, the Ki result (in data set [2]; at Cytochrome P450 2D6) was “Not Active” throughout.
Regarding `Clc1cc2c(cc1Cl)Oc1cc(Cl)c(Cl)cc1O2` [2,3,7,8-TETRACHLORODIBENZO-P-DIOXIN], the IC50 result (in data set [1]; in data set [2]; on D(4) dopamine receptor; in data set [3] (insect cells); on Androgen receptor; on Cytochrome P450 2D6) was “Not Active” in each case. Also, the Ki entry (in data set [2]; at Cytochrome P450 2D6) was “Not Active” in each case.
As for `CCCCCC[C@H]1C(=O)O[C@H](C)[C@H](NC(=O)c2cccc(NC=O)c2O)C(=O)O[C@@H](C)[C@@H]1OC(=O)CC(C)C` [ANTIMYCIN A], the IC50 result (in data set [1]; in data set [2]; at D(4) dopamine receptor; in data set [3] (insect cells); on Androgen receptor; against Cytochrome P450 2D6) was “Not Active” in each case. The Ki entry (in data set [2]; on Cytochrome P450 2D6) was “Not Active” throughout.
As for `C[C@@H]1CC[C@H]2[C@@H](C)C(=O)O[C@@H]3O[C@@]4(C)CC[C@@H]1[C@]32OO4` [ARTEMISININ], the IC50 result (in data set [1]; in data set [2]; on D(4) dopamine receptor; in data set [3] (insect cells); against Androgen receptor) was “Not Active” each time. In addition, the Ki result in data set [2] was “Not Active”.
Turning to `CC(C)(C)c1ccc(S(=O)(=O)/C=C/C#N)cc1` [BAY-11-7085], the IC50 result (in data set [1]; in data set [2]; at D(4) dopamine receptor; in data set [3] (insect cells); at Androgen receptor; on Cytochrome P450 2D6) was “Not Active” each time. The Ki entry (in data set [2]; on Cytochrome P450 2D6) was “Not Active” each time.
Consider `CCc1oc2ccccc2c1C(=O)c1cc(Br)c(O)c(Br)c1` [BENZBROMARONE], for which the IC50 result (in data set [1]; in data set [2]; at D(4) dopamine receptor; in data set [3] (insect cells); at Androgen receptor; at Cytochrome P450 2D6) was “Not Active” each time. In addition, the Ki result (in data set [2]; at Cytochrome P450 2D6) was “Not Active” in each case.
Regarding `O=c1cc(-c2ccccc2)oc2ccc3ccccc3c12` [BETA-NAPHTHOFLAVONE], the IC50 (as a rule, the concentration that inhibits the measured activity by half) in data set [1] was “Not Active”; in data set [2], “Not Active”; at D(4) dopamine receptor, “Not Active”; in data set [3] (read-out: IC50) it was 2.51 µM; against Androgen receptor it was “Not Active”; on Cytochrome P450 2D6, “Not Active”. Moreover, the Ki result (in data set [2]; on Cytochrome P450 2D6) was “Not Active” throughout.
On to `O=C(/C=C/c1ccc(O)c(O)c1)OCCc1ccccc1` [CAFFEIC ACID PHENETHYL ESTER], for which the IC50 result in data set [1] was “Not Active”; in data set [2], “Not Active”; on D(4) dopamine receptor, “Not Active”; in data set [3] (read-out: IC50), 4.21 µM; against Androgen receptor, “Not Active”; against Cytochrome P450 2D6, “Not Active”. For the same compound, the Ki entry (in data set [2]; on Cytochrome P450 2D6) was “Not Active” each time.
For the compound `CC(C)(Oc1ccc(C2CC2(Cl)Cl)cc1)C(=O)O` (centres undefined) [CIPROFIBRATE], the IC50 entry (in data set [1]; in data set [2]; on D(4) dopamine receptor; in data set [3] (insect cells); against Androgen receptor; on Cytochrome P450 2D6) was “Not Active” in each case. Also, the Ki result (in data set [2]; at Cytochrome P450 2D6) was “Not Active” throughout.
On to `OCCO` [ETHYLENE GLYCOL], for which the IC50 entry (in data set [1]; in data set [2]; at D(4) dopamine receptor; in data set [3] (insect cells); at Androgen receptor; against Cytochrome P450 2D6) was “Not Active” in each case. For the same compound, the Ki result (in data set [2]; on Cytochrome P450 2D6) was “Not Active” in each case.
Consider `CC(=O)OCC(CCn1cnc2cnc(N)nc21)COC(C)=O` [FAMCICLOVIR], for which the IC50 result (in data set [1]; in data set [2]; at D(4) dopamine receptor; in data set [3] (insect cells); at Androgen receptor; on Cytochrome P450 2D6) was “Not Active” throughout. Also, the Ki result (in data set [2]; on Cytochrome P450 2D6) was “Not Active” in each case.
Regarding `O=C(O)Cc1ccc(-c2ccccc2)cc1` [FELBINAC], the IC50 result (in data set [1]; in data set [2]; on D(4) dopamine receptor; in data set [3] (insect cells); against Androgen receptor; at Cytochrome P450 2D6) was “Not Active” throughout. Besides, the Ki entry (in data set [2]; at Cytochrome P450 2D6) was “Not Active” in each case.
On to `Cc1cn[nH]c1` [FOMEPIZOLE], for which the IC50 result (in data set [1]; in data set [2]; on D(4) dopamine receptor; in data set [3] (insect cells); against Androgen receptor) was “Not Active” in each case. In addition, the Ki result in data set [2] is reported as “Not Active”.
For the compound `C[C@H]([C@](O)(Cn1cncn1)c1ccc(F)cc1F)S(C)(=O)=O` [GENACONAZOLE], the IC50 result (in data set [1]; in data set [2]; on D(4) dopamine receptor; in data set [3] (insect cells); against Androgen receptor; at Cytochrome P450 2D6) was “Not Active” each time. The Ki result (in data set [2]; on Cytochrome P450 2D6) was “Not Active” in each case.
Regarding `COc1ccccc1OCC(O)CO` (centres undefined) [GUAIFENESIN], the IC50 entry (in data set [1]; in data set [2]; at D(4) dopamine receptor; in data set [3] (insect cells); on Androgen receptor) was “Not Active” throughout. In addition, the Ki entry in data set [2] is recorded as “Not Active”.
For the compound `N=C(N)N/N=C/c1c(Cl)cccc1Cl` [GUANABENZ], the IC50 entry (in data set [1]; in data set [2]; on D(4) dopamine receptor; in data set [3] (insect cells); against Androgen receptor; on Cytochrome P450 2D6) was “Not Active” each time. Moreover, the Ki result (in data set [2]; on Cytochrome P450 2D6) was “Not Active” each time.
As for `C[C@]12CCC(=O)C=C1CC[C@@H]1[C@@H]2[C@@H](O)C[C@@]2(C)[C@H]1CC[C@]2(O)C(=O)CO` [HYDROCORTISONE], the IC50 entry (in data set [1]; in data set [2]; on D(4) dopamine receptor; in data set [3] (insect cells); against Androgen receptor; on Cytochrome P450 2D6) was “Not Active” each time. In addition, the Ki entry (in data set [2]; at Cytochrome P450 2D6) was “Not Active” throughout.
As for `CC[C@H](C)C(=O)O[C@H]1C[C@H](O)C=C2C=C[C@H](C)[C@H](CC[C@@H](O)C[C@@H](O)CC(=O)O)[C@H]21` [PRAVASTATIN], the IC50 result (in data set [1]; in data set [2]; on D(4) dopamine receptor; in data set [3] (insect cells); against Cytochrome P450 2D6) was “Not Active” in each case. The Ki result (in data set [2]; at Cytochrome P450 2D6) was “Not Active” in each case.
Take `CC(C)(Sc1cc(C(C)(C)C)c(O)c(C(C)(C)C)c1)Sc1cc(C(C)(C)C)c(O)c(C(C)(C)C)c1` [PROBUCOL]: the IC50 result (in data set [1]; in data set [2]; on D(4) dopamine receptor; in data set [3] (insect cells); on Cytochrome P450 2D6) was “Not Active” each time. The Ki entry (in data set [2]; on Cytochrome P450 2D6) was “Not Active” each time.
